In patent US20250017936A1, “CELL-POTENT BISUBSTRATE INHIBITORS FOR NICOTINAMIDE N-[…] (NNMT) AND USES THEREOF” (priority 2021, published 2025):
Where two headings read alike, the source gives them in different places.

What was measured:
NNMT [1] = target: T1, NNMT (Homo sapiens (Human), UniProt P40261); test: biochemical; assay type: biochemical
NNMT [2] = target: T1, NNMT; test: Fluorescence polarization (FP)-based competition assay with probe II138; assay type: binding; conditions: read-out: Ki (FP Assay)
[3] = SAHH-coupled Assay IC50, 10 μM SAM, 10 μM nicotinamide (Km), 0.1 μM NNMT

T1 sequence (P40261 whole entry): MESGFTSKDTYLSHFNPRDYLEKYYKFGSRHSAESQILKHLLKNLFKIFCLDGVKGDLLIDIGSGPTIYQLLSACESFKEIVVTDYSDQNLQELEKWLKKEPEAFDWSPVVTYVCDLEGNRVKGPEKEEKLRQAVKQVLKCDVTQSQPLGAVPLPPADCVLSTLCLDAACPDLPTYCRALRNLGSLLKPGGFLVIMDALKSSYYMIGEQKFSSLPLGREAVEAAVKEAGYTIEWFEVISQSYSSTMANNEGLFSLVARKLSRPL

IC50 (NNMT [1]; [3]) [nM] | IC50 (NNMT [1]; 10 μM SAM, 10 μM nicotinamide (Km), 0.1 μM NNMT, read-out: SAHH-coupled Assay IC50) [nM] | IC50 (NNMT [1]; 10 μM SAM, 10 μM nicotinamide (Km), 0.1 μM NNMT, read-out: SAHH-coupled assay IC50) [nM] | Ki (NNMT [1]; read-out: Ki, app) [nM] | IC50 (NNMT [1]; substrate and SAM concentration at 4 Km, read-out: SAHH-coupled Assay IC50) [nM] | Ki (NNMT [2]) [nM] | Structure (SMILES)
7700 |  |  |  |  |  | CCN(CC#Cc1cccc(C(N)=O)c1)C[C@H]1C[C@@H](n2ccc3c(Cl)ncnc32)[C@H](O)[C@@H]1O [II542, 3-(3-((((1R,2R,3S,4R)-4-(4-chloro-7H-pyrrolo[2,3-d]pyrimidin-7-yl)-2,3dihydroxycyclopentyl)methyl)(ethyl)amino)prop-1-yn-1-yl)benzamide]
7600 |  |  |  |  |  | CC(=O)N(CC#Cc1cccc(C(N)=O)c1)C[C@H]1O[C@@H](n2cnc3c(N)ncnc32)[C@H](O)[C@@H]1O [II661, 3-(3-(N-(((2R,3S,4R,5R)-5-(6-amino-9H-purin-9-yl)-3,4-dihydroxytetrahydrofuran-2-yl)methyl)acetamido)prop-1-yn-1-yl)benzamide]
 | 25 ± 7 | 25 ± 7 | 4 ± 0.02 | 93 ± 7 | 70 ± 8 | CC(=O)N(CC#Cc1cccc(C(N)=O)c1)C[C@H]1C[C@@H](n2ccc3c(N)ncnc32)[C@H](O)[C@@H]1O [II642, 3-(3-(N-(((1R,2R,3S,4R)-4-(4-amino-7H-pyrrolo[2,3-d]pyrimidin-7-yl)-2,3-dihydroxycyclopentyl)methyl)acetamido)prop-1-yn-1-yl) benzamide]
